Reference: patent publication US6576811B1, “Transgenic rat with human normal type c-Ha-ras gene” (National Cancer Center Research Institute, priority 1998, dated 2003)
Values joined by “and” are separate entries in the source; they are usually repeats but may differ in a detail not shown here. Equal entries are not always repeated. Marks after values point to notes of the source that are not given here.

What was measured:
[1] = tested on: wild type rats (non Tg rats); experiment: DMBA-induced mammary carcinomas in wild type rats; type: in vivo, rat
From the text: (§1) Well established mammary carcinogens, such as 7,14-dimethylbenz[a]anthracene (DMBA) and 2-amino-1-methyl-6-phenylimidazo[4,5-]pyridlne (PhIP) were given to the Hras128 rats in the same manner as in previous reports.
(§2) The number of tumor indicates number of lesions per rat and the sizes of the tumors indicates their diameter (mm).

[2] = tested on: human c-Ha-ras proto-oncogene (transgene); experiment: Mutation analysis (RFLP, PCR-SSCP) of the transgene in carcinogen-induced tumors; conditions: for Transgene codon 12 mutations, number of tumors / Transgene codon 61 mutations, number of tumors: RFLP
From the text: Single-stranded DNA confirmation polymorphism (SSCP) analysis is able to be performed according to the followings; T. Sekiya. Protein, Nucleic Acid, Enzyme, vol.
Possible mutations in exons 1 to 4 of the human Ha-ras proto-oncogene and exons 1 and 2 of the endogenous gene were examined by PCR-SSCP analysis.
RFLP analysis is able to perform according to the followings; Nagase, et al., Protein, Nucleic Acid, Enzyme, vol.

[3] = tested on: endogenous Ha-ras gene (rat); experiment: Mutation analysis (PCR-SSCP) of the endogenous Ha-ras gene in carcinogen-induced tumors
From the text: Single-stranded DNA confirmation polymorphism (SSCP) analysis is able to be performed according to the followings; T. Sekiya. Protein, Nucleic Acid, Enzyme, vol. 41, No. 5, 539, 1996.
Possible mutations in exons 1 to 4 of the human Ha-ras proto-oncogene and exons 1 and 2 of the endogenous gene were examined by PCR-SSCP analysis. Using human or rat specific primers, only two bands appeared on the gals. With common primers (cHras21F and cHras21R) for Ha-ras exon 2 of both man and rats, four bands were detected. Human or rat specific bands were identified by signals from normal DNA of the transgenic and non-transgenic rats. DNA from T24 having a mutation in human Ha-ras of codon 12, GGC to GTC and that from pSK2 having a mutation in the codon 61, CAG to CTG, gave clearly mobility shifted bands in the assays (FIG. 4). However, a GGC to GAC mutation of the transgene enriched by PCR after RFLP analysis as described below, which was frequently observed in tumors induced by MNU in human Ha-ras proto-oncogene transgenic mice, could not be detected by SSCP -PCR analysis. In 44 tumors from Hras128 transgenic rats treated with MNU, mutations were not detected in exons 1 to 4 of the introduced human and endogenous c-Ha-ras genes under any of four SSCP conditions (at 4 or 20° C., with or without 5% glycerol) (Table 1). In contrast, a relatively high frequency (6 of 21 tumors of non-transgenic rats (28.6%) of GGA to GAA mutations in codon 12 of the endogenous Ha-ras gene was detected in mammary carcinomas of non-transgenic using PCR-SSCP analysis followed by direct sequencing (Table 1).

Hras128 rats [4] = experiment: DMBA-induced mammary carcinomas in Hras128 rats
From the text: as §1, §2

Hras128 rats [5] = experiment: Effects of d-limonene on MNU-induced mammary carcinogenesis in Hras128 transgenic rats; type: in vivo, rat; conditions: 5% d-limonene, 9 rats
Hras128 rats [6] = experiment: PhIP-induced mammary carcinomas in Hras128 rats; type: in vivo, rat
From the text: as §1

[7] = tested on: wild type rats (non Tg rats); experiment: PhIP-induced mammary carcinomas in wild type rats; type: in vivo, rat; conditions: 4 rats
From the text: as §1

[8] = DMBA-induced mammary carcinomas, Hras128, 20 tumors examined
[9] = DMBA-induced mammary carcinomas, Wild, 7 tumors examined
[10] = Hras128, mammary carcinomas, 14 rats
[11] = Hras128, mammary carcinomas, 6 rats
[12] = PhIP-induced mammary carcinomas, row printed 'Wild' (Hras128 per text), 20 tumors examined

Cc1c2ccccc2c(C)c2c1ccc1ccccc12 [DMBA]
Tumor size (diameter) [1]: 13.4 ± 8.20 mm | No. of tumor-bearing rats ([1]; 12 rats): 4 | No. of tumor-bearing rats (%) ([1]; 12 rats): 33.3% | No. of tumors/rat ([1]; 12 rats): 0.83 ± 1.75 | Transgene codon 12 mutations, % [2, 8]: 30% | Transgene codon 61 mutations, % [2, 8]: 35% | Transgene mutations total, % [2, 8]: 60% | Transgene mutations total, number of tumors [2, 8]: 12 | Transgene codon 12 mutations, number of tumors [2, 8]: 6/20 and 6 | Transgene codon 61 mutations, number of tumors [2, 8]: 7/20 and 7 | Endogenous (rat) exon 1 mutations, number of tumors [3, 8]: 0 | Endogenous (rat) exon 2 mutations, number of tumors [3, 8]: 0 | Endogenous (rat) exon 1 mutations, number of tumors [3, 9]: 0 | Endogenous (rat) exon 2 mutations, number of tumors [3, 9]: 0 | Tumor size (diameter) (Hras128 rats [4]; Hras128, mammary carcinomas): 12.6 ± 9.22 mm | No. of tumor-bearing rats (Hras128 rats [4]; [10]): 13 | No. of tumor-bearing rats (%) (Hras128 rats [4]; [10]): 92.9% | No. of tumors/rat (Hras128 rats [4]; [10]): 9.39 ± 9.79^b | Sensitivity of the Hras128 rat to DMBA (Hras128 rats [4]; mammary carcinogenesis): very sensitive

C=C(C)[C@H]1CC=C(C)CC1 [d-Limonene, d-limonene]
Average size of tumors (mm) (Hras128 rats [5]; basal diet control 10.7 ± 7.34, P < 0.01): 8.23 ± 4.88 ^a mm | No. of tumors/rat (Hras128 rats [5]; basal diet control 26.4 ± 8.52): 19.4 ± 6.71 | Average size of tumors (mm^3) (Hras128 rats [5]; basal diet control 637.7 ± 1669, P < 0.01): 269.5 ± 735.5 ^a mm^3

Cn1c(N)nc2ncc(-c3ccccc3)cc21 [PhIP]
Tumor size (Hras128 rats [6]; Hras128, mammary carcinomas): 9.23 ± 6.21 mm | No. of tumor-bearing rats (Hras128 rats [6]; [11]): 6 | No. of tumor-bearing rats (%) (Hras128 rats [6]; [11]): 100% | No. of tumors/rat (Hras128 rats [6]; [11]): 9.67 ± 4.76^b | Sensitivity of the Hras128 rat to PhIP (Hras128 rats [6]; mammary carcinogenesis): highly sensitive | No. of tumor-bearing rats [7]: 0(0) | No. of tumor-bearing rats (%) [7]: 0(0) % | No. of tumors/rat [7]: 0 | Transgene codon 12 mutations, % [2, 12]: 30% | Transgene codon 61 mutations, % [2, 12]: 23.1% | Transgene mutations total, number of tumors [2, 12]: 8 | Transgene codon 12 mutations, number of tumors [2, 12]: 6/20 and 6 | Transgene codon 61 mutations, number of tumors [2, 12]: 3/20 and 3 | Transgene mutations total, figure in parentheses ([2]; PhIP-induced mammary carcinomas, row printed 'Wild' (Hras128 per text), percent sign not given): 61.5 | Endogenous (rat) exon 1 mutations, number of tumors [3, 12]: 0 | Endogenous (rat) exon 2 mutations, number of tumors [3, 12]: 0
